Data: patent publication US20240148821A1, “PHARMACEUTICAL USE OF CYCLIC PEPTIDE COMPOUND” (CHUGAI SEIYAKU KABUSHIKI KAISHA, priority 2021, published 2024)
Numbered stars: 1 amine (or outer) side, 2 acyl side, 3 side chain; on linkers, the order of the positions; unused ones are H or OH. Bridge positions count the residues as written; N and C are the ends. Square brackets hold non-standard residues; d marks the D form. Peptide text beside a SMILES is read from it. * marks the point of attachment. hPhe(3-Cl-4-CF3) = N[C@@H](CCc1ccc(C(F)(F)F)c(Cl)c1)C(=O)O; hPhe(3-F,4-CF3) = N[C@@H](CCc1ccc(C(F)(F)F)c(F)c1)C(=O)O; hPhe(4-CF3) = N[C@@H](CCc1ccc(C(F)(F)F)cc1)C(=O)O; 3Oxa8azabicyclo(3.2.1)octane = C1CC2COCC1N2*; NMePhe(4-Cl) = CN[C@@H](Cc1ccc(Cl)cc1)C(=O)O; NMePhe(4-Me) = CN[C@@H](Cc1ccc(C)cc1)C(=O)O; NMeGly(cPent) = CN[C@H](C(=O)O)C1CCCC1; X67 = O=C([C@@H]1CCC[C@H]1N[*:1])[*:2]; NMe3Pal = CN[C@@H](Cc1cccnc1)C(=O)O; NMeCha = CN[C@@H](CC1CCCCC1)C(=O)O; NMeChg = CN[C@H](C(=O)O)C1CCCCC1; NMeF = CN[C@@H](Cc1ccccc1)C(=O)O; NMeI = CC[C@H](C)[C@H](NC)C(=O)O; NMeD = CN[C@@H](CC(=O)O)C(=O)O; NMeL = CN[C@@H](CC(C)C)C(=O)O; NMeNva = CCC[C@H](NC)C(=O)O; NMeV = CN[C@H](C(=O)O)C(C)C; d(β3hA) = C[C@@H](N)CC(=O)O; NMeA = CN[C@@H](C)C(=O)O; Piperidide = C1CCN(*)CC1; Ac5c = NC1(C(=O)O)CCCC1; Aze = O=C(O)[C@@H]1CCN1; Sar = CNCC(=O)O

What follows are compounds tested against protein-protein interaction between Kras and SOS1 (biotin-tagged human Kras loaded with GDP, His-tagged human SOS1) (Homo sapiens (Human), UniProt P01116, G12D) (assay: Protein-protein interaction inhibition between Kras and SOS1 (KrasG12D-SOS PPI) using AlphaScreen). Conditions: AlphaScreen; biotin-tagged human Kras loaded with GDP, His-tagged human SOS1; read-out: KRAS G12D-SOS PPI IC50.
Assay type: biochemical
`CC[C@H](C)[C@@H]1NC(=O)[C@H](C)N(C)C(=O)C[C@@H](C)NC(=O)[C@H](CC(C)C)N(C)C(=O)[C@H](Cc2ccccc2)N(C)C(=O)[C@H](C)N(C)C(=O)[C@H](CCc2ccc(C(F)(F)F)cc2)NC(=O)CN(C)C(=O)[C@H](Cc2ccc(Cl)cc2)N(C)C(=O)CN(C)C(=O)CN(C)C1=O` [Compound 978] (cyclo(I[Sar][Sar][NMePhe(4-Cl)][Sar][hPhe(4-CF3)][NMeA][NMeF][NMeL][d(β3hA)][NMeA])) showed an IC50 of 170 nM.
For `CCC[C@H]1C(=O)N(C)[C@H](C(=O)N2CCCCC2)CC(=O)N(C)[C@@H](CC(C)C)C(=O)N[C@@H]([C@@H](C)CC)C(=O)N(C)[C@@H](C)C(=O)N2CC[C@H]2C(=O)N(C)[C@@H](CC2CCCCC2)C(=O)N(C)CC(=O)N[C@@H](CCc2ccc(C(F)(F)F)c(Cl)c2)C(=O)N2CCC[C@H]2C(=O)NC2(CCCC2)C(=O)N1C` [Compound 995] ([NMeL]I[NMeA][Aze][NMeCha][Sar][hPhe(3-Cl-4-CF3)]P[Ac5c][NMeNva][NMeD]-Piperidide; lactam N-11), the IC50 was 5.7 nM.
With `CC[C@H](C)[C@@H]1NC(=O)[C@H](C(C)C)N(C)C(=O)[C@@H]2CCC[C@H]2NC(=O)[C@H](CC(C)C)N(C)C(=O)C2(CCCC2)NC(=O)[C@H](CC(C)C)N(C)C(=O)[C@H](CCc2ccc(C(F)(F)F)cc2)NC(=O)CN(C)C(=O)[C@H](Cc2ccc(Cl)cc2)N(C)C(=O)CN(C)C(=O)CN(C)C1=O` [Compound 996] (cyclo([Ac5c][NMeL][X67][NMeV]I[Sar][Sar][NMePhe(4-Cl)][Sar][hPhe(4-CF3)][NMeL])) the IC50 was 90 nM.
Work on `CC[C@H](C)[C@@H]1NC(=O)[C@H](CC(C)C)N(C)C(=O)C[C@@H](C(=O)N2C3CCC2COC3)N(C)C(=O)[C@H]([C@@H](C)CC)N(C)C(=O)C2(CCCC2)NC(=O)[C@@H]2CCCN2C(=O)[C@H](CCc2ccc(C(F)(F)F)c(Cl)c2)NC(=O)CN(C)C(=O)[C@H](C2CCCC2)N(C)C(=O)[C@@H]2CCN2C(=O)[C@H](C)N(C)C1=O` [Compound 1002] ([NMeL]I[NMeA][Aze][NMeGly(cPent)][Sar][hPhe(3-Cl-4-CF3)]P[Ac5c][NMeI][NMeD]-{3Oxa8azabicyclo(3.2.1)octane}; lactam N-11) yielded an IC50 of 2.1 nM.
`CCC[C@H]1C(=O)NC2(CCCC2)C(=O)N(C)[C@@H](C2CCCCC2)C(=O)N(C)[C@H](C(=O)N2CCCCC2)CC(=O)N(C)[C@@H](CC(C)C)C(=O)N[C@@H]([C@@H](C)CC)C(=O)N(C)CC(=O)N(C)CC(=O)N(C)[C@@H](CC2CCCCC2)C(=O)N(C)CC(=O)N[C@@H](CCc2ccc(C(F)(F)F)c(Cl)c2)C(=O)N1C` [Compound 1005] ([NMeL]I[Sar][Sar][NMeCha][Sar][hPhe(3-Cl-4-CF3)][NMeNva][Ac5c][NMeChg][NMeD]-Piperidide; lactam N-11) was tested, and the IC50 was 3.5 nM.
`CC[C@H](C)[C@@H]1NC(=O)[C@H](CC(C)C)N(C)C(=O)C[C@@H](C(=O)N2CCCCC2)N(C)C(=O)[C@H](C2CCCC2)N(C)C(=O)C2(CCCC2)NC(=O)[C@@H]2CCCN2C(=O)[C@H](CCc2ccc(C(F)(F)F)c(F)c2)NC(=O)CN(C)C(=O)[C@H](Cc2ccc(C)cc2)N(C)C(=O)[C@@H]2CCN2C(=O)[C@H](C)N(C)C1=O` [Compound 1008] ([NMeL]I[NMeA][Aze][NMePhe(4-Me)][Sar][hPhe(3-F,4-CF3)]P[Ac5c][NMeGly(cPent)][NMeD]-Piperidide; lactam N-11) gave an IC50 of 0.76 nM.
`CC[C@H](C)[C@@H]1NC(=O)[C@H](C)N(C)C(=O)C[C@@H](C(=O)N2CCCCC2)N(C)C(=O)[C@H](C2CCCCC2)N(C)C(=O)C2(CCCC2)NC(=O)[C@H](Cc2cccnc2)N(C)C(=O)[C@H](CCc2ccc(C(F)(F)F)c(Cl)c2)NC(=O)CN(C)C(=O)[C@H](CC2CCCCC2)N(C)C(=O)CN(C)C(=O)CN(C)C1=O` [Compound 1012] ([NMeA]I[Sar][Sar][NMeCha][Sar][hPhe(3-Cl-4-CF3)][NMe3Pal][Ac5c][NMeChg][NMeD]-Piperidide; lactam N-11) gave an IC50 of 1.2 nM.
Compound `CC[C@H](C)[C@@H]1NC(=O)[C@H](C(C)C)N(C)C(=O)C[C@@H](C)NC(=O)[C@H](CC(C)C)N(C)C(=O)C2(CCCC2)NC(=O)[C@H](CC(C)C)N(C)C(=O)[C@H](CCc2ccc(C(F)(F)F)c(Cl)c2)NC(=O)CN(C)C(=O)[C@H](Cc2ccc(Cl)cc2)N(C)C(=O)CN(C)C(=O)CN(C)C1=O` [Compound 1014] (cyclo([Ac5c][NMeL][d(β3hA)][NMeV]I[Sar][Sar][NMePhe(4-Cl)][Sar][hPhe(3-Cl-4-CF3)][NMeL])) has an IC50 of 13 nM.
In the case of `CC[C@H](C)[C@@H]1NC(=O)[C@H](CC(C)C)N(C)C(=O)C[C@@H](C)NC(=O)[C@H](C(C)C)N(C)C(=O)C2(CCCC2)NC(=O)[C@@H]2CCCN2C(=O)[C@H](CCc2ccc(C(F)(F)F)c(Cl)c2)NC(=O)CN(C)C(=O)[C@H](Cc2ccc(Cl)cc2)N(C)C(=O)[C@@H]2CCN2C(=O)[C@H](C)N(C)C1=O` [Compound 1018] (cyclo([Ac5c][NMeV][d(β3hA)][NMeL]I[NMeA][Aze][NMePhe(4-Cl)][Sar][hPhe(3-Cl-4-CF3)]P)), the IC50 is reported as 11 nM.
